{"source": "patent US9028845B2", "about": "“Chimeric immunomodulatory compounds and methods of using the same-IV” (Dynavax Technologies Corporation, priority 2001, dated 2015)", "key": {"[1]": {"system": "human PBMCs", "assay": "Human PBMC cytokine response assay (IFN-γ and IFN-α in cell-free medium by ELISA), with or without cPLGA", "assay_type": "cell-based"}, "[2]": {"system": "mouse lung", "assay": "Induction of immune-associated genes in the mouse lung after intranasal treatment (quantitative PCR)", "assay_type": "in vivo, BALB/c mice", "conditions": "20 ug intranasal, 6 hrs; vs P-7 treated mice", "method": "The genes evaluated included genes encoding cytokines, chemokines, cell surface molecules, transcription factors, metalloproteases, and other molecules. The study was performed at Northview Pacific Laboratories (Hercules, Calif.) with 6-8 week old female BALB/c mice from Jackson Labs (Bar Harbor, Me.). […] Therefore, at 6 hrs the lungs were harvested and snap-frozen in liquid nitrogen and stored at −80° C. for later use. Total RNA was isolated using RNeasy mini kits (Qiagen Inc., Valencia, Calif.). The RNA samples were DNAse-treated (Roche Diagnostics, Mannheim, Germany) and converted into cDNA using Superscript II Rnase H-Reverse Transcriptase (Invitrogen, Rockville Md.) as described in Scheerens et al., 2001, Eur. J. of Immunology 31:1465-74. The cDNA samples were pooled per group and in each pooled sample the expression of mRNA of 75 genes was measured using real-time quantitative PCR (ABI Prism 5700, Perkin Elmer Applied Biosystems) and syber green (Qiagen Inc.). In addition to the genes of interest, in each sample the mRNA expression of a housekeeping gene was measured (HPRT or ubiquitin). In order to correct for the amount of RNA in each sample, all data were calculated relative to the expression of the housekeeping gene."}, "[3]": {"system": "mice", "assay": "Serum cytokines (IL-12 p40, IL-6, TNF-α) after subcutaneous injection in mice", "assay_type": "in vivo", "conditions": "20 ug subcutaneous", "method": "Blood was collected 2 hours later. For the LPS positive control group, mice were injected intraperitoneally with a 200 ul volume, and blood was collected 1.5 hours later (i.e., at the peak of LPS induced TNF-α activity). The blood was clotted and the serum was prepared and stored at −80° C. until assayed. Serum cytokines were assayed using Biosource cytoscreen kits for TNF-α and Pharmingen antibody pairs for mIL-6 and mIL-12. All samples were assayed in duplicate."}, "[4]": {"system": "CD19+ B cells", "assay": "Human B cell proliferation assay (3H-thymidine incorporation)", "conditions": "B cells, 2 μg/ml, Experiment B"}, "[5]": {"conditions": "donor 28066, 20 ug/ml, 24 h, + PLGA = premixed with 100 μg/ml cPLGA"}, "[6]": {"conditions": "donor 28067, 20 ug/ml, 24 h, + PLGA = premixed with 100 μg/ml cPLGA"}, "[7]": {"conditions": "donor 28068, 20 ug/ml, 24 h, + PLGA = premixed with 100 μg/ml cPLGA"}, "[8]": {"conditions": "mean of donors 28065-28068, 20 ug/ml, 24 h, + PLGA = premixed with 100 μg/ml cPLGA"}, "[9]": {"conditions": "mean of donors 28185-28188, Table 15"}}, "data": [{"substance": "5′-TCGTCG-3′-HEG-5′-AACGTT-3′-HEG-5′-AGATGAT-3′ [Compound C-23]", "values": [{"measurement": "IFN-α", "setting": "[1]; Table 13, donor 28156", "result": 26, "unit": "pg/mL"}, {"measurement": "IFN-γ", "setting": "[1]; Table 13, donor 28156", "result": 733, "unit": "pg/mL"}, {"measurement": "IFN-α", "setting": "[1]; Table 13, donor 28157", "result": 235, "unit": "pg/mL"}, {"measurement": "IFN-γ", "setting": "[1]; Table 13, donor 28157", "result": 576, "unit": "pg/mL"}, {"measurement": "IFN-α", "setting": "[1]; Table 13, donor 28158", "result": 59, "unit": "pg/mL"}, {"measurement": "IFN-γ", "setting": "[1]; Table 13, donor 28158", "result": 202, "unit": "pg/mL"}, {"measurement": "IFN-α", "setting": "[1]; Table 13, donor 28159", "result": 169, "unit": "pg/mL"}, {"measurement": "IFN-γ", "setting": "[1]; Table 13, donor 28159", "result": 295, "unit": "pg/mL"}, {"measurement": "IFN-α mean", "setting": "[1]; Table 13, mean of donors", "result": 122, "unit": "pg/mL"}, {"measurement": "IFN-γ mean", "setting": "[1]; Table 13, mean of donors", "result": 452, "unit": "pg/mL"}, {"measurement": "IFN-γ (pg/ml) 28065", "setting": "[1]; donor 28065 (high background), 20 ug/ml, 24 h, + PLGA = premixed with 100 μg/ml cPLGA, 1000 = outside assay limits", "result": 438, "unit": "pg/mL"}, {"measurement": "IFN-α (pg/ml) 28065", "setting": "[1]; donor 28065, 20 ug/ml, 24 h, + PLGA = premixed with 100 μg/ml cPLGA", "result": 52, "unit": "pg/mL"}, {"measurement": "IFN-α (pg/ml) 28066", "setting": "[1]; [5]", "result": 3, "unit": "pg/mL"}, {"measurement": "IFN-γ (pg/ml) 28066", "setting": "[1]; [5]", "result": 5, "unit": "pg/mL"}, {"measurement": "IFN-α (pg/ml) 28067", "setting": "[1]; [6]", "result": 19, "unit": "pg/mL"}, {"measurement": "IFN-γ (pg/ml) 28067", "setting": "[1]; [6]", "result": 6, "unit": "pg/mL"}, {"measurement": "IFN-α (pg/ml) 28068", "setting": "[1]; [7]", "result": 137, "unit": "pg/mL"}, {"measurement": "IFN-γ (pg/ml) 28068", "setting": "[1]; [7]", "result": 238, "unit": "pg/mL"}, {"measurement": "IFN-a", "setting": "[1]; donor 28185, Table 15", "result": 83, "unit": "pg/mL"}, {"measurement": "IFN-g", "setting": "[1]; donor 28185, Table 15", "result": 42, "unit": "pg/mL"}, {"measurement": "IFN-a", "setting": "[1]; donor 28186, Table 15", "result": 27, "unit": "pg/mL"}, {"measurement": "IFN-g", "setting": "[1]; donor 28186, Table 15", "result": 14, "unit": "pg/mL"}, {"measurement": "IFN-a", "setting": "[1]; donor 28187, Table 15", "result": 59, "unit": "pg/mL"}, {"measurement": "IFN-g", "setting": "[1]; donor 28187, Table 15", "result": 29, "unit": "pg/mL"}, {"measurement": "IFN-a", "setting": "[1]; donor 28188, Table 15", "result": 55, "unit": "pg/mL"}, {"measurement": "IFN-g", "setting": "[1]; donor 28188, Table 15", "result": 3, "unit": "pg/mL"}, {"measurement": "IFN-α (pg/ml) mean", "setting": "[1]; [8]", "result": 53, "unit": "pg/mL"}, {"measurement": "IFN-γ (pg/ml) mean", "setting": "[1]; [8]", "result": 172, "unit": "pg/mL"}, {"measurement": "IFN-a (pg/ml) mean", "setting": "[1]; [9]", "result": 56, "unit": "pg/mL"}, {"measurement": "IFN-g (pg/ml) mean", "setting": "[1]; [9]", "result": 22, "unit": "pg/mL"}, {"measurement": "IFN-a (pg/ml) ×2", "setting": "[1]; mean ×2, Table 15", "result": 112, "unit": "pg/mL"}, {"measurement": "IFN-g (pg/ml) ×4", "setting": "[1]; mean ×4, Table 15", "result": 88, "unit": "pg/mL"}, {"measurement": "mRNA expression of immune-associated genes in the lung, in words", "setting": "[2]", "result": "potently induce the expression of a variety of genes"}, {"measurement": "potency in serum cytokine induction compared with other compounds, in words", "setting": "[3]", "result": "more potent than C-9 and P-6"}, {"measurement": "induction of serum IL-12 p40, IL-6 and TNF-α, in words", "setting": "[3]; blood 2 hours later", "result": "induced IL-12 p40, IL-6, and TNF-α"}, {"measurement": "cpm1", "setting": "[4]; donor 121", "result": 10628, "unit": "cpm"}, {"measurement": "cpm2", "setting": "[4]; donor 121", "result": 16221, "unit": "cpm"}, {"measurement": "cpm3", "setting": "[4]; donor 121", "result": 20087, "unit": "cpm"}, {"measurement": "mean cpm", "setting": "[4]; donor 121 mean", "result": 15645, "unit": "cpm"}, {"measurement": "cpm1", "setting": "[4]; donor 194", "result": 8730, "unit": "cpm"}, {"measurement": "cpm2", "setting": "[4]; donor 194", "result": 6532, "unit": "cpm"}, {"measurement": "cpm3", "setting": "[4]; donor 194", "result": 9596, "unit": "cpm"}, {"measurement": "mean cpm", "setting": "[4]; donor 194 mean", "result": 8286, "unit": "cpm"}, {"measurement": "mean of both", "setting": "[4]; mean of donors 121 and 194", "result": 11966, "unit": "cpm"}]}]}
